Measured values taken from article PMC8397297 (ACS Chemical Neuroscience, 2021).

Legend:
paclitaxel-treated mice = assay: paclitaxel-induced peripheral neuropathy, heat nociceptive threshold (hot plate test); type: in vivo, mouse; conditions: for effect on latency to pain reaction (heat), hot plate test: day of paclitaxel administration (paclitaxel-induced hypoalgesia); for effect on thermal nociceptive threshold, hot plate test: seven days after paclitaxel administration, i.p.
Description: (§1) Before the in vivo tests, the test compounds were suspended in 1% Tween 80 (Baxter, Poland). The compounds were then administered intraperitoneally. […] The test compounds were administered only once daily on days 1 and 7 of oxaliplatin- or paclitaxel-induced neuropathy. In STZ-treated mice, test compounds were administered 21 days after STZ injection. Control mice used in oxaliplatin and paclitaxel NP models were injected with an appropriate amount of vehicle (0.9% saline). Oxaliplatin was purchased from Activate Scientific GmbH (Germany). Paclitaxel and STZ were purchased from Sigma-Aldrich (Poland).
Doses of both paclitaxel and STZ used for the induction of neuropathy were selected based on our previous research.[66],[67] To induce neuropathy, paclitaxel was used at a dose of 18 mg/kg. It was prepared by dissolving in ethanol (100% (v/v); Polskie Odczynniki Chemiczne, Gliwice, Poland) at 10% of the final desired volume and vortexed for 2 min. An equal volume of Cremophor EL (10% of the final volume) was then added, and the mixture was vortexed for the next 10 min. Prior to injection, ice-cold physiological saline (80% of the final volume) was added to make up a final volume and the solution was maintained on ice during dosing.[66] To induce type I diabetes, mice were intraperitoneally injected with STZ (a single injection of STZ, 200 mg/kg) dissolved in 0.1 N citrate buffer. Age-matched control mice received an equal volume of citrate buffer. Blood glucose level was measured 1 day before (referred to as “day 0”) and repeatedly 1, 2, and 3 weeks after STZ injection using a blood glucose monitoring system (Accu-Chek Active, Roche, France). Blood samples for measurement of glucose concentration were obtained from the tail vein of the mice. The animals were considered as diabetic when their blood glucose concentration exceeded 300 mg/dL,[68] and only these mice (diabetic mice) were used in subsequent pain tests.[67]
Thermal (heat) nociceptive threshold was assessed in the hot plate test as previously described.[67] First, baseline (predrug) latencies to pain reaction were established for each mouse. Then, the mice were treated intraperitoneally with either the test compound or vehicle. Sixty minutes later the animals were placed on the hot plate apparatus again (hot/cold plate, Bioseb, France). This apparatus has an electrically heated surface and is supplied with a temperature-controller that maintains the temperature at 55 °C. The time until the animal licked its hind paws or jumped was recorded by means of a stop-watch. In this assay a cutoff time was established (60 s) to avoid tissue damage, and the mice not responding within 60 s were removed from the apparatus and assigned a score of 60 s.

STZ-treated mice = assay: diabetic STZ-induced peripheral neuropathy, tactile allodynia (von Frey test); type: in vivo, mouse; conditions: 21 days after STZ, i.p., doses 10 and 30 mg/kg
Description: as §1
Doses of both paclitaxel and STZ used for the induction of neuropathy were selected based on our previous research.[66],[67] To induce neuropathy, paclitaxel was used at a dose of 18 mg/kg. […] Blood glucose level was measured 1 day before (referred to as “day 0”) and repeatedly 1, 2, and 3 weeks after STZ injection using a blood glucose monitoring system (Accu-Chek Active, Roche, France). […]
The ability of the test compounds to attenuate tactile allodynia caused by oxaliplatin, paclitaxel, and STZ was assessed using the von Frey test. For this purpose, 3 h after oxaliplatin or paclitaxel and 21 days after STZ injection, the predrug paw withdrawal threshold was measured for each mouse. […]

[1] = HepG2 hepatoma cell-based hepatotoxicity assay (MTS); conditions: human, HepG2 hepatoma cells; 25 μM, 72 h, control 1% DMSO in culture media; read-out: HepG2 cell viability compared to the control
Description: To investigate the safety of compounds 2RS,4RS-39c, 50a, and 56a, a HepG2 hepatoma cell-based hepatotoxicity assay was used. Compounds were tested at six concentrations (0.1–100 μM).
Hepatotoxicity and cytotoxicity were estimated according to previously described protocols[62] using the hepatoma HepG2 (ATCC HB-8065) and human embryonic kidney HEK-293 (ATCC CRL1573) cell lines, respectively. In brief, cells were seeded in 96-well plates at a density of 0.7 × 10^4 and cultured at 37 °C in an atmosphere containing 5% CO2. Next, the compounds were added and investigated in quadruplicate at concentrations ranging from 0.1 to 100 μM for 72 h. The antiproliferative drug DX was used as the reference. The CellTiter 96 AQueous nonradioactive cell proliferation assay (MTS) purchased from Promega (Madison, WI, USA) was used for the determination of cell viability. The absorbance at 492 nm was measured using an EnSpire microplate reader (PerkinElmer, Waltham, MA, USA).

Row | Compound | effect on latency to pain reaction (heat), hot plate test (paclitaxel-treated mice; 30 mg/kg i.p.) | effect on thermal nociceptive threshold, hot plate test (paclitaxel-treated mice) | effect on mechanical nociceptive threshold (tactile allodynia), von Frey test (STZ-treated mice) | viability at 72 h, 25 µM [1] | effect on latency to pain reaction (heat), hot plate test (paclitaxel-treated mice; 10 mg/kg i.p.)
1 | CN(CCON=C(c1ccccc1)c1ccccc1)C(CCN)C(=O)NCc1ccccc1Cl (centres unmarked) [Compound 50a, 4-Amino-N-[(2-chlorophenyl)methyl]-2-[(2-{[(diphenylmethylidene)amino]oxy}ethyl)(methyl)amino]butanamide] | reduced latency to pain reaction | did not reveal the effect of paclitaxel and compounds 50a and 56a on the thermal nociceptive threshold | effective only at the dose of 30 mg/kg |  | 
2 | CN(CCC=C1c2ccccc2CCc2ccccc21)C(CO)C(=O)NCc1ccccc1 (centres unmarked) [Compound 56a, N-Benzyl-2-((3-(10,11-dihydro-5H-dibenzo[a,d][7]annulen-5-ylidene)propyl)(methyl)amino)-3-hydroxypropanamide] | reduced latency to pain reaction | did not reveal the effect of paclitaxel and compounds 50a and 56a on the thermal nociceptive threshold | effective only at the dose of 30 mg/kg | 100% | reduced latency to pain reaction
